Measured values reported in patent US10159265B2, “Feed composition for reducing ruminant methanogenesis” (priority 2012, dated 2018).
Marks after values point to notes of the source that are not given here.

Legend:
[1] = system: "in vitro" ruminal fluid cultures; assay: Ammonia (N-NH3) concentration in "in vitro" ruminal fluid cultures; assay type: cell-based, calves; details: 72 h
[2] = system: "in vitro" ruminal fluid cultures; assay: Volatile fatty acid concentration and molar proportions in "in vitro" ruminal fluid cultures; assay type: cell-based, calves
Text: (§1) Two trials following an identical experimental protocol were designed to study the effect of different pure flavonoids on rumen fermentation using a simulatory “in vitro” system based on the experimental protocol described by Theodorou M K et al. (1994) Animal Feed Science and Technology, 48 (3), p. 185-197; Mauricio, R. M., et al. (1999) Animal Feed Science and Technology 79, 321-330.
(§2) Rumen cannulated calves which received a mixed ration mainly composed of concentrate (90:10) were used as rumen fluid donor; feed composition is presented in Table 1. The inoculum was collected and filtered through two-layer surgical gauze and kept in thermo pots. Flavonoids (Table 2) plus 600 mg of concentrate (Table 1) and 60 mg of barley straw as the substrate were dosed by triplicate in preheated bottles (39° C.) and maintained under anaerobic conditions. Flavonoids isonaringin, neoeritrocin, poncirin were purchased from INDOFINE Chemical Company, Inc (USA). 10 ml of rumen fluid and 40 ml of incubation medium were added to the bottles (McDougall, El (1948) Studies on ruminant saliva. 1. The composition and output of sheep's saliva. Biochem J. 43(1) 99-109). Once the bottles were filled and the anaerobic condition was applied, the bottles were sealed and the incubation process was started in a hot water bath. Pressure readings were made at 2, 4, 6, 8, 12, 24, 36 and 48 hours. Each sample was incubated in triplicate in two sets or batches.
[…] P., 1982 Science des Aliments 2, 131-144), lactate (Taylor, K. A. C. C., 1996. Appl. Biochem. Biotechnol. Enzym. Eng. Biotechnol. 56, 49-58) and ammonia (Chaney, A. L., Marbach, E. P., 1962. Clin. Chem. 8, 130-132) analyses.

[3] = system: "in vitro" rumen fluid culture; assay: Biogas production in "in vitro" rumen fluid culture (pressure meter); assay type: cell-based, calves; parameters: Average biogas production / Cumulative biogas production / Biogas production: unit not given here; details: for Average biogas production: average over doses and incubation times
Procedure: as §1
Gas production was determined from a semi-automatic pressure meter, the relationship between pressure levels and the produced gas volume was previously calculated.
as §2, with “Pressure readings were made at 2, 4, 6, 8, 12, 24, 36 and 48 hours.” left out

Streptococcus bovis = assay: qPCR relative quantification of Streptococcus bovis; assay type: cell-based; details: 12 hours of incubation
Procedure: as §2
(§3) After 12 hours of incubation, one bottle (replicate) from each treatment was opened, pH was recorded and the bottle was sampled for volatile fatty acids (Jouany, J. P., 1982 Science des Aliments 2, 131-144), lactate (Taylor, K. A. C. C., 1996. Appl. Biochem. Biotechnol. Enzym. Eng. Biotechnol. 56, 49-58) and ammonia (Chaney, A. L., Marbach, E. P., 1962. Clin. Chem. 8, 130-132) analyses.
(§4) The environmental DNA was extracted using the technique proposed by Yu and Morrison (2004). Quantification of Streptococcus bovis, Megasphaera elsdenii and Selenomonas ruminantium DNA was done by qPCR using specific primers (Tajima, K. et al. 2001. Appl. Environ. Microb. 67, 2766-2774; Ouwerkerk, D., et al. 2002. J. Appl. Microbiol. 92, 753-758). Results were statistically analyzed using the PROC MIXED procedure of SAS statistical package (SAS, 2000, User's guide: Statistics, version 8 editions inst., Inc., Cary, N.C.). The least significant difference was used to compare the means. Differences between means in which P<0.05 were accepted as significant.

ruminal bacteria = assay: Bacterial DNA concentration by qPCR; assay type: cell-based, calves; details: 12 hours of incubation
Procedure: as §2, §3, §4

Selenomonas ruminantium = assay: qPCR relative quantification of Selenomonas ruminantium; assay type: cell-based; details: 12 hours of incubation
Procedure: as §2, §3, §4

Megasphaera elsdenii = assay: qPCR relative quantification of Megasphaera elsdenii; assay type: cell-based; details: 12 hours of incubation
Procedure: as §2, §3, §4

[4] = system: methanogenic (archea) populations; assay: Methane production in "in vitro" rumen fluid culture; assay type: cell-based, calves; parameters: Average methane production / Accumulated methane production / Methane production / Cumulative methane production: unit not given here
Text: as §1
as §2, with “Pressure readings were made at 2, 4, 6, 8, 12, 24, 36 and 48 hours.” left out
The effects of flavonoids substances on fermentation activity of certain archea populations which are theoretically responsible for the methane production were analyzed.
The experimental design allows determining whether the effect of flavonoids on methane reduction was derived from a general reduction in microbial activity and biogas production or contrarily flavonoid affects specifically on methanogenic (archea) populations. The presence of flavonoids in the culture medium reduced methane contribution in the total biogas production (P<0.05) although, again, the aforementioned impact was heterogeneous.

[5] = system: "in vitro" ruminal fluid cultures; assay: Ammonia (N-NH3) concentration in "in vitro" ruminal fluid cultures; assay type: cell-based, calves
Text: as §1, §2, §3

[6] = system: "in vitro" ruminal fluid culture; assay: Lactate concentration in "in vitro" ruminal fluid culture; assay type: cell-based, calves; details: 12 hours of incubation
Text: as §1, §2, §3

[7] = Exp 1, average over doses and incubation times, listed as neohesperidin

## COc1ccc([C@@H]2CC(=O)c3c(O)cc(O[C@@H]4O[C@H](CO)[C@@H](O)[C@H](O)[C@H]4O[C@@H]4O[C@@H](C)[C@H](O)[C@@H](O)[C@H]4O)cc3O2)cc1O [Neohesperidin, neohesperidin]
[1]
  N-NH3 concentration: 339.17 mg/L
[2]; 0 h
  % Acetate, molar ratio: 62.51 mol/100 mol
  % Butyrate, molar ratio: 9.07 mol/100 mol
  % Propionate, molar ratio: 20.03 mol/100 mol
  A/P rate (acetate/propionate): 3.12
[2]; 0 h (initial constant value)
  VFA concentration: 13.78 mmol/L
[2]; 12 h
  % Acetate, molar ratio: 54.68 mol/100 mol
  % Butyrate, molar ratio: 9.68 mol/100 mol
  % Propionate, molar ratio: 30.05 mol/100 mol
  A/P rate (acetate/propionate): 1.82
  VFA concentration: 36.97 mmol/L
[2]; 72 h
  % Acetate, molar ratio: 55.68 mol/100 mol
  % Butyrate, molar ratio: 9.96 mol/100 mol
  % Propionate, molar ratio: 26.91 mol/100 mol
  A/P rate (acetate/propionate): 2.07
  VFA concentration: 53.04 mmol/L
[2]; average over incubation times
  % Acetate, molar ratio, average (μ): 57.62 mol/100 mol
  % Butyrate, molar ratio, average (μ): 9.57 ^a mol/100 mol
  % Propionate, molar ratio, average (M): 25.66 ^b mol/100 mol
  VFA concentration, average (μ): 34.60 mmol/L
[3]; Exp 1, 12 h incubation
  Cumulative biogas production: 175.93
[3]; Exp 1, 24 h incubation
  Cumulative biogas production: 217.84
[3]; Exp 1, 48 h incubation
  Cumulative biogas production: 253.99
[3]; Exp 1, 72 h incubation
  Cumulative biogas production: 275.06
[3]; Exp 1
  Average biogas production: 230.71^e
[3]; Exp 1, listed as neohesperidin
  Average biogas production: 230.7
[3]; Exp 1, dose 1, 0.2 g/kg DM
  Biogas production: 238.13
[3]; Exp 1, dose 2, 0.5 g/kg DM
  Biogas production: 223.28
[3]; Exp 1, inclusion levels 200 and 500 mg/kg
  Dosage effect on gas production: more pronounced dosage effect
[3]; Exp 2 (second trial)
  Average biogas production: 268.16^c
[3]; Exp 2, 12 h
  Cumulative biogas production: 215.60
[3]; Exp 2, 24 h
  Cumulative biogas production: 256.18
[3]; Exp 2, 48 h
  Cumulative biogas production: 292.28
[3]; Exp 2, 72 h
  Cumulative biogas production: 308.57
[3]; Exp 2, dose 1, 0.2 g/kg DM
  Biogas production: 267.1
[3]; Exp 2, dose 2, 0.5 g/kg DM
  Biogas production: 269.2
Streptococcus bovis
  Relative Quantification 2^(ΔΔCt) S. bovis: 0.25
Ruminal bacteria
  Bacteria DNA: 23.93 ^ab μg/ml
Ruminal bacteria; listed as neohesperidin
  Bacteria DNA: increase did only reach statistical significance
Selenomonas ruminantium
  Relative Quantification 2^(ΔΔCt) S. ruminantium: 0.53
Megasphaera elsdenii
  Relative Quantification 2^(ΔΔCt) M. elsdenii: 1.35 ^c
Megasphaera elsdenii; listed as neohesperidin
  Relative Quantification 2^(ΔΔCt) M. elsdenii: improved
[4]; Exp 1, 200 vs 500 mg/kg DM
  Dosage effect on methane production: more reduced by increasing the dose
[4]; Exp 1, 12 h
  Accumulated methane production: 18.02
  Proportion of methane in the produced biogas: 10.21
[4]; Exp 1, 24 h
  Accumulated methane production: 23.15
  Proportion of methane in the produced biogas: 12.34
[4]; Exp 1, 48 h
  Accumulated methane production: 28.84
  Proportion of methane in the produced biogas: 15.91
[4]; Exp 1, 72 h
  Accumulated methane production: 32.18
  Proportion of methane in the produced biogas: 16.20
[4]; Exp 1, average over doses and incubation times
  Proportion of methane in the produced biogas: 13.66^d
[4]; [7]
  Average methane production: decreased
  Proportion of methane in the produced biogas: 13.70
[4]; Exp 1, dose 1, 0.2 g/kg DM
  Methane production: 27.63
  Proportion of methane in the produced biogas: 13.98
[4]; Exp 1, dose 2, 0.5 g/kg DM
  Methane production: 23.46
  Proportion of methane in the produced biogas: 13.35
[4]; Exp 2 (second trial), average over doses and incubation times
  Average methane production: 30.44^b
[4]; Exp 2, 12 h
  Cumulative methane production: 22.52
[4]; Exp 2, 24 h
  Cumulative methane production: 27.98
[4]; Exp 2, 48 h
  Cumulative methane production: 34.31
[4]; Exp 2, 72 h
  Cumulative methane production: 36.95
[4]; Exp 2, dose 1, 0.2 g/kg DM
  Methane production: 30.1
[4]; Exp 2, dose 2, 0.5 g/kg DM
  Methane production: 30.8
[5]; 0 h (initial constant value)
  N-NH3 concentration: 149.99 mg/L
[5]; 12 h
  N-NH3 concentration: 168.38 mg/L
[5]; average over incubation times
  N-NH3 concentration, average (M): 219.18 mg/L
[6]
  Lactate: 45.8 mg/L
[6]; listed as neohesperidin
  Lactate: tended to moderate the recorded increase
